# Laboratory results: publication PMC12693182, “Synthesis and QSAR Studies of Claramine Derivatives, a New Class of Broad-Spectrum Antimicrobial Agents” (Molecules, 2025)
# Tests used:
# S. aureus 340 = test: MIC, broth microdilution; type: cell-based, Staphylococcus aureus; details: for MIC: Staphylococcus aureus, 340, 24 h; for MIC S. aureus 340: 24 h
# Procedure: (§1) Antimicrobial activity of the compounds was studied by determination of minimal inhibitory concentrations (MIC) according to the NCCLS guidelines M7-A2 using the microbroth dilution methods. The bacteria strains were grown on trypticase soy agar (Becton Dickinson) at 37 °C for 24 h. Inocula were prepared in TCE (tryptone 0.1%, […], wt/vol) by ajusting the turbidity at 623 nm to obtain 1–3 10^5 CFU/mL.
# (§2) Antimicrobial activities of the compounds were determined by using a broth microdilution method performed in sterile 96-well microplates. All compounds were solubilized in water at a concentration of 10 mM and were transferred to each microplate well in order to obtain a two-fold serial dilution in 100 µL of broth and 100 µL of inoculum containing 2–6 10^5 CFU of each bacterium were added to each well. Some wells were reserved for positive controls and inoculum viability.
# S. aureus ATCC 25923 = test: MIC, broth microdilution; type: cell-based, Staphylococcus aureus; details: ATCC strain; for MIC: Staphylococcus aureus, ATCC25923, 24 h
# Procedure: as §1, §2
# S. intermedius 1051997 = test: MIC, broth microdilution; type: cell-based, Staphylococcus intermedius; details: for MIC: Staphylococcus intermedius, 1051997, 24 h
# Procedure: as §1, §2
# E. faecalis ATCC29212 = test: MIC, broth microdilution; type: cell-based, Enterococccus faecalis; details: ATCC strain; for MIC: Enterococcus faecalis, ATCC29212, 24 h, read-out: MIC E. faecalis 29212
# Procedure: as §1, §2
# E. coli ATCC 25922 = test: MIC, broth microdilution; type: cell-based, Escherichia coli; details: ATCC strain; for MIC: Escherichia coli, ATCC25922, 24 h
# Procedure: as §1, §2
# P. aeruginosa 1051575 = test: MIC, broth microdilution; type: cell-based, Pseudomonas aeruginosa; details: for MIC: Pseudomonas aeruginosa, 1051575, 24 h; for MIC / MIC P. aeruginosa 1051575: 24 h
# Procedure: as §1, §2
# P. aeruginosa ATCC 27853 = test: MIC, broth microdilution; type: cell-based, Pseudomonas aeruginosa; details: ATCC strain; for MIC: Pseudomonas aeruginosa, ATCC27853, 24 h
# Procedure: as §1, §2
# [1] = system: Chinese hamster Ovary cells (CHO-K1); test: Cytotoxicity assay (WST-1 / Neutral Red); type: cell-based; details: 24-h incubation; for IC50: Cricetulus griseus, 24 h
# Procedure: The cytotoxic activities of compounds were assessed on Chinese hamster Ovary cells (CHO-K1) provided from ATCC-LGC Standards Sarl (Molsheim, France). Cells were maintained in Mc Coy’s 5A (CHO) medium supplemented with 10% bovine calf serum, 2 mM glutamine, and 100 U mL^−1/10 µg mL^−1 penicillin/streptomycin mixtures. For the cytotoxicity experiments, they were seeded in 96-well plates and incubated at 37 °C in humidified atmosphere containing 5% CO2 overnight, then concentrations of compounds were incorporated in triplicate cultures. After a 24-h incubation period at 37 °C, cells were submitted to three successive washes in phosphate buffer saline (PBS) and cell viability was evaluated by two different vital dyes: • i. A first set of cell cultures was incubated in PBS containing 10% WST-1 for 30 min at 37 °C, 5% CO2. Cell viability was evaluated by the assessment of WST-1 absorbance at 450 nm in a microplate spectrophotometer. • ii. A second set of cell cultures was placed into Neutral Red medium (50 μg mL^−1 Neutral Red in complete medium) and incubated for 3 h at 37 °C, 5% CO2. Then the Neutral Red medium was removed and the distaining solution (50% ethanol, 1% acetic acid, 49% distilled water; 50 µL per well) was added into the wells. The plates were shaken for 15–20 min at room temperature in the dark. Cell viability was evaluated by the assessment of absorbance at 540 nm in a microplate spectrophotometer.
# Results were expressed as percentages of cell viability about the control (culture medium-only), which corresponded to 100% cell viability. Dose-response curves were calculated by non-linear regression analysis with TableCurve 2D software (V 5.0.1) (Systat Software Inc., San Jose, CA, USA). The Inhibitory Concentration 50% (IC50) was defined as the concentration of compounds that induced a 50% decrease of viable cells.
# [2] = system: Gram-positive and Gram-negative human and veterinary reference strains; test: MIC against the panel of Gram-positive and Gram-negative reference strains; type: cell-based; details: Homo sapiens, 24 h, over several or all of the tested pathogens
# Excerpt: Typically, cytotoxicity was expressed as the half maximal inhibitory concentration (IC50), defined as the concentration of a compound that decreases cell viability by 50% relative to untreated cells. This parameter provides a quantitative measure of a compound’s toxic potential toward mammalian cells. To facilitate data interpretation, we defined the Therapeutic Ratio (TR) as the ratio of IC50 (µg/mL) to MIC (µg/mL). This dimensionless parameter provides a straightforward measure of antibacterial selectivity, allowing direct comparison of cytotoxicity and antibacterial potency. A high TR value indicates compounds with strong antibacterial activity at concentrations far below their cytotoxic threshold, whereas a TR close to unity reflects poor selectivity and limited therapeutic potential. […] Within the Claramine A series, variations in IC50 strongly impacted TR values (Figure 5).
# as §1, §2
# E. coli 1956 = test: MIC, broth microdilution; type: cell-based, Escherichia coli; details: for MIC: Escherichia coli, 1956, 24 h
# Procedure: as §1, §2
SMILES,MIC (S. aureus 340),MIC (S. aureus ATCC 25923),MIC (S. intermedius 1051997; 24 h),MIC (E. faecalis ATCC29212),MIC (E. coli ATCC 25922),MIC (P. aeruginosa 1051575),MIC (P. aeruginosa ATCC 27853),IC50 CHO [1],IC50 [1],MIC S. aureus 340 (S. aureus 340),MIC (E. coli 1956),further results
COC(=O)CCC(C)C1CCC2C3C(O)CC4CC(NCCCN5CCN(CCCN)CC5)CCC4(C)C3CC(O)C12C (stereo not shown) [Claramine B07],8 µg/mL,4 µg/mL,4 µg/mL,8 µg/mL,15 µg/mL,15 µg/mL,30 µg/mL,80 µg/mL,> 60 µg/mL,–,–,MIC [2]: 0.7 to 30 µg/mL
COC(=O)CCC(C)C1CCC2C3C(O)CC4CC(NCCCNCCCNCCCN)CCC4(C)C3CCC12C (stereo not shown) [Claramine D02],–,–,–,–,–,–,–,20 µg/mL,–,4 µg/mL,–,MIC S. aureus 25923 (S. aureus ATCC 25923; 24 h): 7 µg/mL; MIC S. intermedius 1051997 (S. intermedius 1051997; 24 h): 1 µg/mL; MIC E. faecalis 29212 (E. faecalis ATCC29212; 24 h): 30 µg/mL; MIC E. coli 1956 (E. coli 1956; 24 h): 60 µg/mL; MIC E. coli 25922 (E. coli ATCC 25922; 24 h): 4 µg/mL; MIC P. aeruginosa 1051575 (P. aeruginosa 1051575): 7 µg/mL; MIC P. aeruginosa 27853 (P. aeruginosa ATCC 27853; 24 h): 30 µg/mL
CC(C)OC(=O)CCC(C)C1CCC2C3C(O)CC4CC(NCCN(CCN)CCN)CCC4(C)C3CCC12C (stereo not shown) [Claramine D10],–,28 µg/mL,7 µg/mL,56 µg/mL,110 µg/mL,–,110 µg/mL,80 µg/mL,–,28 µg/mL,56 µg/mL,MIC P. aeruginosa 1051575 (P. aeruginosa 1051575): 14 µg/mL
CC(C)OC(=O)CCC(C)C1CCC2C3CCC4CC(NCCCNCCCCNCCCN)CCC4(C)C3CCC12C (stereo not shown) [Claramine E01],4 µg/mL,4 µg/mL,2 µg/mL,8 µg/mL,15 µg/mL,8 µg/mL,15 µg/mL,–,24 µg/mL,–,8 µg/mL,–
CC(C)OC(=O)CCC(C)C1CCC2C3CCC4CC(NCCCNCCCNCCCN)CCC4(C)C3CCC12C (stereo not shown) [Claramine E02],7 µg/mL,7 µg/mL,1 µg/mL,14 µg/mL,14 µg/mL,2 µg/mL,28 µg/mL,–,15 µg/mL,–,7 µg/mL,–
CC(C)OC(=O)CCC(C)C1CCC2C3CCC4CC(NCCCNCCCCN)CCC4(C)C3CCC12C (stereo not shown) [Claramine E03],7 µg/mL,3 µg/mL,2 µg/mL,7 µg/mL,100 µg/mL,7 µg/mL,27 µg/mL,–,56 µg/mL,–,14 µg/mL,–
CC(C)OC(=O)CCC(C)C1CCC2C3CCC4CC(NCCCN5CCN(CCCN)CC5)CCC4(C)C3CCC12C (stereo not shown) [Claramine E05],8 µg/mL,15 µg/mL,15 µg/mL,30 µg/mL,15 µg/mL,8 µg/mL,60 µg/mL,50 µg/mL,46 µg/mL,–,15 µg/mL,–
COC(=O)CCC(C)C1CCC2C3CCC4CC(NCCCNCCCN)CCC4(C)C3CCC12C (stereo not shown) [Claramine E09],1 µg/mL,16 µg/mL,0.7 µg/mL,32 µg/mL,32 µg/mL,–,32 µg/mL,80 µg/mL,> 60 µg/mL,0.7 µg/mL,3 µg/mL,"Therapeutic Ratio (TR) (S. intermedius 1051997; IC50 (CHO)/MIC, S. intermedius): 65–114; Therapeutic Ratio (TR) (P. aeruginosa 1051575; IC50 (CHO)/MIC, P. aeruginosa): > 10; MIC [2]: 0.7 to 30 µg/mL"
CC(C)OC(=O)CCC(C)C1CCC2C3CCC4CC(NCCN(CCN)CCN)CCC4(C)C3CCC12C (stereo not shown) [Claramine E22],14 µg/mL,14 µg/mL,7 µg/mL,55 µg/mL,110 µg/mL,55 µg/mL,110 µg/mL,105 µg/mL,107 µg/mL,–,55 µg/mL,–
